Converted amounts (≈) assume the structure as drawn. Structures can show the parent of a compound that is named as a salt. Where two headings read alike, the source gives them in different places. Marks after values point to notes of the source that are not given here.
Tests used:
MRSA = assay: MIC testing by broth dilution, MRSA; assay type: cell-based, Staphylococcus aureus
Method in brief: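 Values are broth-dilution MICs, defined as the well showing no growth on visual reading after 24 h; the tested range was 32 to 0.06 μg/ml, in organism-specific media (LB, Trypticase Soy, Brain Heart Infusion). The C. difficile entries come instead from anaerobic Kirby-Bauer disk zones, normalised to NTZ.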

[1] = test system: PFOR (pyruvate ferredoxin oxidoreductase); assay: Direct PFOR enzyme assay; assay type: biochemical
Method: (§1) Representative compounds of the invention were tested in a series of assays against a series of organisms as described above. […] The organisms tested include, C. difficile, H. pylori, C. jejuni, MRSA, S. epidermidis, and E. coli. S. epidermidis and E. coli were tested in the plank and biofilm assay. A disk diffusion assay was also used for C. difficile. Direct PFOR enzyme assays were also performed. All analogues and derivatives were not tested on every organism in every type of assay (the “-” in each table means that it was not tested).

S. epidermidis = assay: MIC testing by broth dilution, S. epidermidis plank; assay type: cell-based, Staphylococcus epidermidis
Method in brief: (§2)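 Compounds were diluted serially from 32 μg/ml to 0.06 in medium holding a standard inoculum, then visually scored at 24 h, and the lowest well without growth was recorded. Media were LB for E. coli, Trypticase Soy for S. epidermidis and Brain Heart Infusion for C. jejuni. C. difficile zones were measured anaerobically relative to NTZ.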

C. jejuni = assay: MIC testing by broth dilution, C. jejuni; assay type: cell-based, Campylobacter jejuni
Method in brief: as §2

H. pylori = assay: MIC testing by broth dilution, H. pylori; assay type: cell-based, Helicobacter pylori
Method in brief: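 Helicobacter pylori was tested using a standard broth dilution method in 96 well microplates, each well holding a standard dilution of the organism in 100 microliters of Brain Heart Infusion. Compounds started at 32 μg/ml in 200 microliters in the first well and were serially diluted from 32 to 0.06. Wells were read visually at 24 h, and the MIC was the well with no growth.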

E. coli biofilm = E. coli biofilm assay (activity tables); assay type: cell-based, Escherichia coli; conditions: biofilm; read-out: MIC (μM) E. coli Biofilm
Method in brief: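 E. coli strain 042 inoculated 1:100 with NTZ-containing medium and grown statically at 37 °C for 24 h. Growth measured by turbidity or plate counts (cfu/ml); biofilm stained with 0.5% crystal violet and read at 570 nm; triplicate, mean ± SD.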

S. epidermidis biofilm = S. epidermidis biofilm assay (activity tables); assay type: cell-based, Staphylococcus epidermidis
Method: Staphylococcal strains were cultured overnight in TSB at 37° C. with shaking, diluted in fresh medium to an OD600 of 0.01 and 200 W was dispensed into sterile flat bottom polystyrene 96 well microtiter plates (Costar 3596, Corning Inc.). […] Each compound and dilution was tested in triplicate. The plates were incubated overnight at 37° C. in a humidified incubator, without shaking and both growth and biofilm accumulation were determined at 16 h.
Following recording of turbidities, the culture medium was aspirated and the wells were washed three times with distilled water, blotted on paper towels, and fixed with 75% ethanol for 10 minutes.
To visualize biofilm material, 0.5% crystal violet was added to each well and after 5 minutes was removed and the wells washed three times with distilled water. Plates were read using a microplate reader at a wavelength of 570 nm. The dye was then extracted by adding 200 W of 95% ethanol, and the absorbance was read again at 570 nm. All assays were performed in triplicate and the mean and standard deviation determined. […]
as §1

E. coli = assay: MIC testing by broth dilution, E. coli plank; assay type: cell-based, Escherichia coli; conditions: 24 h, read-out: MIC (μM) E. coli Plank
Method in brief: as §2

C. difficile = assay: Disk diffusion (Kirby Bower), C. difficile; assay type: cell-based, Clostridium difficile; conditions: zone of inhibited growth as relative ratio to the zone for NTZ
Method in brief: as §2

[2] = 2-amino-3,5-dinitrothiophene analogues table, read-out: MIC MRSA
[3] = * biphasic initial inhibition followed by uninhibited rate, ** caused some precipitant in extract
[4] = planktonic, 2-amino-3,5-dinitrothiophene analogues table, read-out: MIC S. epidermidis Plank
[5] = 2-amino-3,5-dinitrothiophene analogues table, read-out: MIC C. jejuni
[6] = 2-amino-3,5-dinitrothiophene analogues table, read-out: MIC H. pylori
[7] = Staphylococcus aureus, MRSA, read-out: MIC MRSA
[8] = Staphylococcus epidermidis, read-out: MIC S. epidermidis Plank
[9] = Campylobacter jejuni, read-out: MIC C. jejuni
[10] = Helicobacter pylori, read-out: MIC H. pylori
[11] = broth dilution, Trypticase Soy, 24 h, read-out: MIC (μM) MRSA
[12] = broth dilution, Trypticase Soy, 24 h, read-out: MIC (μM) S. epidermidis Plank
[13] = broth dilution, Brain Heart Infusion, 24 h, read-out: MIC (μM) C. jejuni
[14] = broth dilution, Brain Heart Infusion, 24 h, read-out: MIC (μM) H. pylori
[15] = Staphylococcus aureus, MRSA, 24 h, read-out: MIC (μM) MRSA
[16] = Staphylococcus epidermidis, 24 h, read-out: MIC (μM) S. epidermidis Plank
[17] = Campylobacter jejuni, 24 h, read-out: MIC (μM) C. jejuni
[18] = Helicobacter pylori, 24 h, read-out: MIC (μM) H. pylori

In the case of `O=C(Nc1sc([N+](=O)[O-])cc1[N+](=O)[O-])c1ccc(Br)s1` [VPC16b2025], the MIC (MRSA; [2]) is reported as 63.5 µM (≈ 24 µg/mL), the “PFOR inhibition relative to nitazoxanide (=100)” value [1, 3] is reported as 98** % and the MIC (S. epidermidis; [4]) is reported as 15.9 µM (≈ 6.01 µg/mL). It also gave an MIC (C. jejuni; [5]) of 2.6 µM (≈ 0.983 µg/mL) and an MIC (H. pylori; [6]) of 2.6 µM (≈ 0.983 µg/mL).
For `O=C(Nc1sc([N+](=O)[O-])cc1[N+](=O)[O-])c1cc(C(F)(F)F)ccc1Cl` [VPC16b2026, 2-Chloro-N-(3,5-dinitrothiophen-2-yl)-5-(trifluoromethyl)benzamide], the MIC (MRSA; [7]) was 30.3 µM (≈ 12 µg/mL), the “PFOR inhibition relative to nitazoxanide (=100)” value [1, 3] was 100% and the MIC (S. epidermidis; [8]) was 15.2 µM (≈ 6.01 µg/mL). The MIC (C. jejuni; [9]) was 2.5 µM (≈ 0.989 µg/mL) and the MIC (H. pylori; [10]) was 0.8 µM (≈ 0.317 µg/mL).
In the case of `O=C(Nc1sc([N+](=O)[O-])cc1[N+](=O)[O-])c1cccc(C(F)(F)F)c1Cl` [VPC16b2028], the MIC (MRSA; [2]) is reported as 30.3 µM (≈ 12 µg/mL), the “PFOR inhibition relative to nitazoxanide (=100)” value [1, 3] is reported as 113% and the MIC (S. epidermidis; [4]) is reported as 30.3 µM (≈ 12 µg/mL). The MIC (C. jejuni; [5]) was 1.9 µM (≈ 0.752 µg/mL) and the MIC (H. pylori; [6]) was 0.8 µM (≈ 0.317 µg/mL).
With `NCCOc1ccccc1C(=O)Nc1sc([N+](=O)[O-])cc1[N+](=O)[O-]` [VPC16b2031, 2-(2-Aminoethoxy)-N-(3,5-dinitrothiophen-2-yl)benzamide] the MIC (MRSA; [7]) was 82.3 µM (≈ 29 µg/mL), the “PFOR inhibition relative to nitazoxanide (=100)” value [1, 3] was 162% and the MIC (S. epidermidis; [8]) was 25.7 µM (≈ 9.05 µg/mL). The MIC (C. jejuni; [9]) was 1.3 µM (≈ 0.458 µg/mL) and the MIC (H. pylori; [10]) was 1.9 µM (≈ 0.669 µg/mL).
For `N#Cc1ccc(C(=O)Nc2ncc([N+](=O)[O-])s2)cc1` [VPC161086], the MIC (MRSA; [11]) was 14.6 µM (≈ 4 µg/mL), the “PFOR inhibition relative to nitazoxanide (=100)” value [1] was 74% and the MIC (E. coli biofilm) was 58.3 µM (≈ 16 µg/mL). For the same compound, the MIC (S. epidermidis; [12]) was 21.9 µM (≈ 6.01 µg/mL), the “MIC (μM) S. epidermidis Biofilm” value (S. epidermidis biofilm) was 4.6 µM (≈ 1.26 µg/mL) and the MIC (C. jejuni; [13]) was 43.8 µM (≈ 12 µg/mL). The MIC (E. coli; broth dilution, LB medium) was 87.5 µM (≈ 24 µg/mL) and the MIC (H. pylori; [14]) was 9.1 µM (≈ 2.5 µg/mL).
With `O=C(Nc1nc(Cl)c([N+](=O)[O-])s1)c1ccccc1` [VPC162087] the MIC (MRSA; [11]) was 112.8 µM (≈ 32 µg/mL), the “PFOR inhibition relative to nitazoxanide (=100)” value [1] was 107% and the MIC (S. epidermidis; [12]) was 35.2 µM (≈ 9.99 µg/mL). The “Disk Diffusion (%) C. difficile” value (C. difficile) was 66%, the MIC (C. jejuni; [13]) was 7.1 µM (≈ 2.01 µg/mL) and the MIC (E. coli; broth dilution, LB medium) was 112.8 µM (≈ 32 µg/mL). For the same compound, the MIC (H. pylori; [14]) was 8.8 µM (≈ 2.5 µg/mL).
For `O=C(Nc1nc(Cl)c([N+](=O)[O-])s1)c1cccc(C(F)(F)F)c1` [VPC162088], the MIC (MRSA; [11]) was 11.4 µM (≈ 4.01 µg/mL), the “PFOR inhibition relative to nitazoxanide (=100)” value [1] was 49** % and the MIC (S. epidermidis; [12]) was 8.5 µM (≈ 2.99 µg/mL). For the same compound, the “Disk Diffusion (%) C. difficile” value (C. difficile) was 76%, the MIC (C. jejuni; [13]) was 34.1 µM (≈ 12 µg/mL) and the MIC (E. coli; broth dilution, LB medium) was 91.0 µM (≈ 32 µg/mL). The MIC (H. pylori; [14]) was 5.7 µM (≈ 2 µg/mL).
With `O=C(Nc1nc(Cl)c([N+](=O)[O-])s1)c1cccs1` [VPC162089, N-(4-Chloro-5-nitrothiazol-2-yl)thiophene-2-carboxamide] the MIC (MRSA; Staphylococcus aureus, MRSA, broth dilution, Trypticase Soy, 24 h, read-out: MIC (μM) MRSA) was 110 µM (≈ 32 µg/mL), the “PFOR inhibition relative to nitazoxanide (=100)” value [1] was 93% and the MIC (S. epidermidis; Staphylococcus epidermidis, broth dilution, Trypticase Soy, 24 h, read-out: MIC (μM) S. epidermidis Plank) was 82.8 µM (≈ 24 µg/mL). It also gave an MIC (C. jejuni; Campylobacter jejuni, broth dilution, Brain Heart Infusion, 24 h, read-out: MIC (μM) C. jejuni) of 13.8 µM (≈ 4 µg/mL), an MIC (E. coli; Escherichia coli, broth dilution, LB medium) of 110 µM (≈ 32 µg/mL) and an MIC (H. pylori; Helicobacter pylori, broth dilution, Brain Heart Infusion, 24 h, read-out: MIC (μM) H. pylori) of 6.9 µM (≈ 2 µg/mL).
For `NCCOc1ccsc1C(=O)Nc1ncc([N+](=O)[O-])s1` [VPC162125, 3-(2-Aminoethoxy)-N-(5-nitrothiazol-2-yl)thiophene-2-carboxamide hydrochloride], the MIC (MRSA; [15]) was 91.2 µM, the “PFOR inhibition relative to nitazoxanide (=100)” value [1] was 137% and the MIC (S. epidermidis; [16]) was 91.2 µM. The MIC (C. jejuni; [17]) was 11.4 µM, the MIC (E. coli; Escherichia coli) was 91.2 µM and the MIC (H. pylori; [18]) was 0.7 µM.
`NCCCc1ccccc1C(=O)Nc1ncc([N+](=O)[O-])s1` [VPC162134, 2-(3-Aminopropyl)-N-(5-nitrothiazol-2-yl)benzamide hydrochloride] was tested, and the MIC (MRSA; [15]) was 93.3 µM, the “PFOR inhibition relative to nitazoxanide (=100)” value [1] was 144% and the MIC (S. epidermidis; [16]) was 93.3 µM. For the same compound, the MIC (C. jejuni; [17]) was 17.5 µM and the MIC (H. pylori; [18]) was 2.9 µM.
